Results on 27 molecules are retold here after US9382188B2, “Aromatic ring compound” (TAKEDA PHARMACEUTICAL COMPANY LIMITED, priority 2012, dated 2016).

This experiment deals with T1, human GPR40 (Homo sapiens, UniProt O14842).
T1 construct: expressed in transfected cells
T1 sequence (O14842 whole entry): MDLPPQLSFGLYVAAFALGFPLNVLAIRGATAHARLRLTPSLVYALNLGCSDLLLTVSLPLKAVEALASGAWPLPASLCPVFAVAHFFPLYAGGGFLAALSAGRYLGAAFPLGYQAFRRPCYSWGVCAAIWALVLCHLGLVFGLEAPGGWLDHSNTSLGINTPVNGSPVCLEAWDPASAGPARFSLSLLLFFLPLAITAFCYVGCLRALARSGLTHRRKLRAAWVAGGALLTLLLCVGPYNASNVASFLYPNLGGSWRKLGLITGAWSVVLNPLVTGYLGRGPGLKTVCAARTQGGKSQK
The experiment can be described thus: Evaluation of human GPR40 agonist activity with increase in intracellular Ca2+ concentration as an index (FLIPR Tetra). It counts as cell-based. Conditions: test compound 1 μM; CHO(dhfr-) cells stably expressing human GPR40; 100% = activity of 1 μM WO2009/048527 Example 99.2, 0% = DMSO. As to the method: Evaluation of human GPR40 agonist activity with increase in intracellular Ca^2+ concentration as an index
CHO(dhfr-) cells that stably expressed human GPR40 were suspended in MEMα (Nikken Bio Medical Laboratory) containing 10% dialysis serum (GEMINI BIO-PRODUCTS), 10 mM HEPES (Invitrogen), 100 U/mL penicillin, 100 μg/mL streptomycin (Invitrogen), and plated on a 384 well black/clear cell culture plate at 10,000 cells/well. After culture overnight in a CO2 incubator at 37° C., the culture supernatant was removed, and a loading buffer [dye attached to Calcium 5 Assay Kit (Molecular Devices) was dissolved in an assay buffer (20 mM HEPES, 0.2% fatty acid-free BSA (Sigma-Aldrich), 2.5 mM probenecid (DOJINDO)-containing HBSS (Invitrogen)) added with 0.025% Cremophor EL (DOJINDO)] was added at 37.5 μL/well. After incubation in a CO2 incubator at 37° C. for 1 hr, the cells were stood at room temperature for 15 min, an assay buffer containing the test compound at a final concentration of 1 μM was added at 12.5 μL/well in FLIPR Tetra (Molecular Devices), and the fluorescence amount was successively measured. Human GPR40 agonist activity calculated using an increase in the intracellular Ca^2+ concentration as an index, wherein the activity of 1 μM of the compound described in WO 2009/048527 (WO2009/048527 Example 99.2) was 100%, and the activity when DMSO was added instead of the test compound was 0%.
In the case of `COc1ccc(F)c(-c2ccc(N(C)Cc3cccc(C(CC(=O)O)C4CC4)c3)cc2CC(C)(C)C)c1` (stereo not drawn) [Example 9, 3-cyclopropyl-3-(3-(((2-(2,2-dimethylpropyl)-2′-fluoro-5′-methoxybiphenyl-4-yl)(methyl)amino)methyl)phenyl)propanoic acid], the activation at 1 µM amounted to 103%. Same read-out and setting: then `COc1ccc(F)c(-c2ccc(OCc3cccc(C(CC(=O)O)C4CC4)c3)cc2C2CC(C)(C)OC(C)(C)C2)c1` (stereo not drawn) [Example 96, 3-cyclopropyl-3-(3-(((2′-fluoro-5′-methoxy-2-(2,2,6,6-tetramethyltetrahydro-2H-pyran-4-yl)biphenyl-4-yl)oxy)methyl)phenyl)propanoic acid], with 140%; and `COc1ccc(F)c(-c2ccc(OCc3cccc(C(CCCC#N)CC(=O)O)c3)cc2CC(C)(C)C)c1` (stereo not drawn) [Example 89, 6-cyano-3-(3-(((2′-fluoro-5′-methoxy-2-neopentyl-[1,1′-biphenyl]-4-yl)oxy)methyl)phenyl)hexanoic acid], with 94%. Consider `COc1ccc(F)c(-c2ccc(OCc3cccc(C(CC(=O)O)C4CC4)c3)nc2CC(C)(C)C)c1` (stereo not drawn) [Example 6, sodium 3-cyclopropyl-3-(3-(((6-(2,2-dimethylpropyl)-5-(2-fluoro-5-methoxyphenyl)pyridin-2-yl)oxy)methyl)phenyl)propanoate], for which the “Human GPR40 agonist activity (increase in intracellular Ca2+ concentration)” value amounted to 98%. On to `CC(C)(C)Cc1cc(OCc2cccc(C(CC(=O)O)C3CC3)c2)cnc1-c1cccc(O)c1` (stereo not drawn) [Example 55, 3-cyclopropyl-3-(3-(((5-(2,2-dimethylpropyl)-6-(3-hydroxyphenyl)pyridin-3-yl)oxy)methyl)phenyl)propanoic acid], for which the activation at 1 µM was 126%. In the case of `COc1ccc(F)c(-c2ccc(OCc3cccc(C(CC(=O)O)C4CC4)c3)cc2CC2(C)CCCC2)c1` (stereo not drawn) [Example 97, 3-cyclopropyl-3-(3-(((2′-fluoro-5′-methoxy-2-((1-methylcyclopentyl)methyl)biphenyl-4-yl)oxy)methyl)phenyl)propanoic acid], the activation at 1 µM turned out to be 118%. On the same count and under the same terms, then `COc1ccc(C)c(-c2ncc(OCc3cccc(C(CC(=O)O)C4CC4)c3)cc2CC(C)(C)C)c1` (stereo not drawn) [Example 58, 3-cyclopropyl-3-(3-(((5-(2,2-dimethylpropyl)-6-(5-methoxy-2-methylphenyl)pyridin-3-yl)oxy)methyl)phenyl)propanoic acid], with 114%; and `CC(C)(C)Cc1cc(OCc2cccc(C(CC(=O)O)C3CC3)c2)cnc1-c1cc(O)ccc1F` (stereo not drawn) [Example 73, 3-cyclopropyl-3-(3-(((5-(2,2-dimethylpropyl)-6-(2-fluoro-5-hydroxyphenyl)pyridin-3-yl)oxy)methyl)phenyl)propanoic acid], with 123%; and `CCC(C)(C)C(OC)c1cc(OCc2cccc(C(CC(=O)O)C3CC3)c2)ccc1-c1cc(OC)ccc1F` (stereo not drawn) [Example 109, 3-cyclopropyl-3-(3-(((2′-fluoro-5′-methoxy-2-(1-methoxy-2,2-dimethylbutyl)biphenyl-4-yl)oxy)methyl)phenyl)propanoic acid], with 119%.

Take `COc1ccc(F)c(-c2ccc(OCc3cccc(C(CC(=O)O)C(C)(C)C#N)c3)cc2CC(C)(C)C)c1` (stereo not drawn) [Example 84, 4-cyano-3-(3-(((2′-fluoro-5′-methoxy-2-neopentyl-[1,1′-biphenyl]-4-yl)oxy)methyl)phenyl)-4-methylpentanoic acid]: the activation at 1 µM was determined as 90%. Still for that read-out and setting: in the case of `CCC(CC(=O)O)c1cccc(COc2ccc(-c3cc(OC)ccc3F)c(CC(C)(C)C)c2)c1` (stereo not drawn) [Example 80, 3-(3-(((2′-fluoro-5′-methoxy-2-neopentyl-[1,1′-biphenyl]-4-yl)oxy)methyl)phenyl)pentanoic acid] it was 94%; in that of `CCOC(=O)CC(CC(=O)O)c1cccc(COc2ccc(-c3cc(OC)ccc3F)c(CC(C)(C)C)c2)c1` (stereo not drawn) [Example 81, 5-ethoxy-3-(3-(((2′-fluoro-5′-methoxy-2-neopentyl-[1,1′-biphenyl]-4-yl)oxy)methyl)phenyl)-5-oxopentanoic acid], 134%; in that of `COc1ccc(F)c(-c2ccc(OCc3cccc(C(CC(=O)O)C4CC4)c3)cc2CC(C)(C)C#N)c1` (stereo not drawn) [Example 26, 3-(3-(((2-(2-cyano-2-methylpropyl)-2′-fluoro-5′-methoxybiphenyl-4-yl)oxy)methyl)phenyl)-3-cyclopropylpropanoic acid], 105%. `COc1ccc(F)c(-c2ccc(OCc3cccc(C(CC(=O)O)C4CCCCC4)c3)cc2CC(C)(C)C)c1` (stereo not drawn) [Example 40, 3-cyclohexyl-3-(3-(((2-(2,2-dimethylpropyl)-2′-fluoro-5′-methoxybiphenyl-4-yl)oxy)methyl)phenyl)propanoic acid]: the activation at 1 µM stood at 114%. `CCC1(Cc2cc(OCc3cccc(C(CC(=O)O)C4CC4)c3)ccc2-c2cc(OC)ccc2F)CCCC1` (stereo not drawn) [Example 100, 3-cyclopropyl-3-(3-(((2-((1-ethylcyclopentyl)methyl)-2′-fluoro-5′-methoxybiphenyl-4-yl)oxy)methyl)phenyl)propanoic acid]: the activation at 1 µM is 105%.

Consider `COc1ccc(F)c(-c2ccc(OCc3cccc(C(CC(=O)O)C4CCC4)c3)cc2CC(C)(C)C)c1` (stereo not drawn) [Example 42, 3-cyclobutyl-3-(3-(((2-(2,2-dimethylpropyl)-2′-fluoro-5′-methoxybiphenyl-4-yl)oxy)methyl)phenyl)propanoic acid], for which the activation at 1 µM was 104%. On to `COc1ccc(F)c(-c2ccc(OCc3cccc(C(CC(N)=O)CC(=O)O)c3)cc2CC(C)(C)C)c1` (stereo not drawn) [Example 83, 5-amino-3-(3-(((2′-fluoro-5′-methoxy-2-neopentyl-[1,1′-biphenyl]-4-yl)oxy)methyl)phenyl)-5-oxopentanoic acid], for which the activation at 1 µM amounted to 34%. Take `COc1ccc(F)c(-c2ccc(OCc3cc(C(CC(=O)O)C4CC4)ncn3)nc2CC(C)(C)C)c1` (stereo not drawn) [Example 30, 3-cyclopropyl-3-(6-(((6-(2,2-dimethylpropyl)-5-(2-fluoro-5-methoxyphenyl)pyridin-2-yl)oxy)methyl)pyrimidin-4-yl)propanoic acid]: the activation at 1 µM is 103%. As to `COc1ccc(F)c(-c2ccc(OCc3cccc(C(CC(=O)O)C4CC4)c3)cc2-c2cnc(C)s2)c1` (stereo not drawn) [Example 19, 3-cyclopropyl-3-(3-(((2′-fluoro-5′-methoxy-2-(2-methyl-1,3-thiazol-5-yl)biphenyl-4-yl)oxy)methyl)phenyl)propanoic acid], the activation at 1 µM amounted to 120%. For `COc1ccc(F)c(-c2ccc(OCc3cccc(OCC(=O)O)c3)nc2CC(C)(C)C)c1` [Example 1, (3-(((6-(2,2-dimethylpropyl)-5-(2-fluoro-5-methoxyphenyl)pyridin-2-yl)oxy)methyl)phenoxy)acetic acid], the activation at 1 µM came out at 98%. Consider `CC(C)(C)Cc1cc(OCc2cccc(C(CC(=O)O)C3CC3)c2)cnc1-c1ccc(OC(F)(F)F)cc1` (stereo not drawn) [Example 61, 3-cyclopropyl-3-(3-(((5-(2,2-dimethylpropyl)-6-(4-(trifluoromethoxy)phenyl)pyridin-3-yl)oxy)methyl)phenyl)propanoic acid], for which the activation at 1 µM amounted to 8%. `CC(C)(C)Cc1cc(OCc2cccc(C(CC(=O)O)C3CC3)c2)cnc1-c1cccc(OC(F)(F)F)c1` (stereo not drawn) [Example 49, 3-cyclopropyl-3-(3-(((5-(2,2-dimethylpropyl)-6-(3-(trifluoromethoxy)phenyl)pyridin-3-yl)oxy)methyl)phenyl)propanoic acid]: the activation at 1 µM is -23%. For the molecule `C=CCCC(CC(=O)O)c1cccc(COc2ccc(-c3cc(OC)ccc3F)c(CC(C)(C)C)c2)c1` (stereo not drawn) [Example 43, 3-(3-(((2-(2,2-dimethylpropyl)-2′-fluoro-5′-methoxybiphenyl-4-yl)oxy)methyl)phenyl)hept-6-enoic acid], the activation at 1 µM came out at 107%.

As for `COc1ccc(OC)c(-c2ncc(OCc3cccc(C(CC(=O)O)C4CC4)c3)cc2CC(C)(C)C)c1` (stereo not drawn) [Example 53, 3-cyclopropyl-3-(3-(((6-(2,5-dimethoxyphenyl)-5-(2,2-dimethylpropyl)pyridin-3-yl)oxy)methyl)phenyl)propanoic acid], the activation at 1 µM was determined as 99%. For `COc1cccc(-c2ncc(OCc3cccc(C(CC(=O)O)C4CC4)c3)cc2CC(C)(C)C)c1` (stereo not drawn) [Example 46, 3-cyclopropyl-3-(3-(((5-(2,2-dimethylpropyl)-6-(3-methoxyphenyl)pyridin-3-yl)oxy)methyl)phenyl)propanoic acid], the activation at 1 µM turned out to be 117%. With `CC(C)(C)Cc1cc(OCc2cccc(C(CC(=O)O)C3CC3)c2)cnc1-c1ccccc1` (stereo not drawn) [Example 45, 3-cyclopropyl-3-(3-(((5-(2,2-dimethylpropyl)-6-phenylpyridin-3-yl)oxy)methyl)phenyl)propanoic acid], the activation at 1 µM was determined as 55%. Turning to `COc1ccc(-c2ncc(OCc3cccc(C(CC(=O)O)C4CC4)c3)cc2CC(C)(C)C)cc1OC` (stereo not drawn) [Example 54, 3-cyclopropyl-3-(3-(((6-(3,4-dimethoxyphenyl)-5-(2,2-dimethylpropyl)pyridin-3-yl)oxy)methyl)phenyl)propanoic acid], the activation at 1 µM was 3%.
